ChEMBL document CHEMBL4152249, “Alkoxyphenylthiazoles with broad-spectrum activity against multidrug-resistant gram-positive bacterial pathogens” (Eur J Med Chem, 2018)
Values after ≈ are worked out from the molar mass of the structure shown.

Legend:
Staphylococcus aureus [1] = experiment: Antibacterial activity against methicillin-resistant Staphylococcus aureus 2658 RCMB after 20 hrs by broth microdilution assay; assay type: functional
Enterococcus faecalis [2] = experiment: Antibacterial activity against vancomycin-resistant Enterococcus faecalis ATCC 51299 after 20 hrs by broth microdilution assay; assay type: functional; details: ATCC 51299, 20 h
[3] = test system: Staphylococcus epidermidis; experiment: Bactericidal activity against methicillin-resistant Staphylococcus epidermidis NRS101 incubated for 20 hrs followed by re-plating on tryptic soy agar plates at 37 degC for 18 hrs by broth microdilution assay; assay type: functional
Staphylococcus aureus [4] = experiment: Antibacterial activity against vancomycin-resistant Staphylococcus aureus VRSA12 after 20 hrs by broth microdilution assay; assay type: functional; details: VRSA12, 20 h
Listeria monocytogenes [5] = experiment: Bactericidal activity against Listeria monocytogenes ATCC 19111 incubated for 20 hrs followed by re-plating on tryptic soy agar plates at 37 degC for 18 hrs by broth microdilution assay; assay type: functional
[6] = test system: Staphylococcus epidermidis; experiment: Antibacterial activity against methicillin-resistant Staphylococcus epidermidis NRS101 after 20 hrs by broth microdilution assay; assay type: functional; details: NRS101, 20 h
Staphylococcus aureus [7] = experiment: Antibacterial activity against methicillin-resistant Staphylococcus aureus after 20 hrs by broth microdilution assay; assay type: functional
Listeria monocytogenes [8] = experiment: Antibacterial activity against Listeria monocytogenes ATCC 19111 after 20 hrs by broth microdilution assay; assay type: functional; details: ATCC 19111, 20 h
Streptococcus pneumoniae [9] = experiment: Antibacterial activity against cephalosporin-resistant Streptococcus pneumoniae ATCC 51916 after 20 hrs by broth microdilution assay; assay type: functional; details: ATCC 51916, 20 h
Staphylococcus aureus [10] = experiment: Bactericidal activity against vancomycin-resistant Staphylococcus aureus VRSA12 incubated for 20 hrs followed by re-plating on tryptic soy agar plates at 37 degC for 18 hrs by broth microdilution assay; assay type: functional
Enterococcus faecium [11] = experiment: Bactericidal activity against vancomycin-resistant Enterococcus faecium ATCC 700221 incubated for 20 hrs followed by re-plating on tryptic soy agar plates at 37 degC for 18 hrs by broth microdilution assay; assay type: functional
Staphylococcus aureus [12] = experiment: Bactericidal activity against methicillin-resistant Staphylococcus aureus NRS385 incubated for 20 hrs followed by re-plating on tryptic soy agar plates at 37 degC for 18 hrs by broth microdilution assay; assay type: functional
Enterococcus faecium [13] = experiment: Antibacterial activity against vancomycin-resistant Enterococcus faecium ATCC 700221 after 20 hrs by broth microdilution assay; assay type: functional; details: ATCC 700221, 20 h
Streptococcus pneumoniae [14] = experiment: Bactericidal activity against cephalosporin-resistant Streptococcus pneumoniae ATCC 51916 incubated for 20 hrs followed by re-plating on tryptic soy agar plates at 37 degC for 18 hrs by broth microdilution assay; assay type: functional
Staphylococcus aureus [15] = experiment: Bactericidal activity against linezolid-resistant Staphylococcus aureus NRS119 incubated for 20 hrs followed by re-plating on tryptic soy agar plates at 37 degC for 18 hrs by broth microdilution assay; assay type: functional
Staphylococcus aureus [16] = experiment: Bactericidal activity against methicillin-resistant Staphylococcus aureus NRS386 incubated for 20 hrs followed by re-plating on tryptic soy agar plates at 37 degC for 18 hrs by broth microdilution assay; assay type: functional
Staphylococcus aureus [17] = experiment: Antibacterial activity against methicillin-resistant Staphylococcus aureus NRS386 after 20 hrs by broth microdilution assay; assay type: functional; details: NRS386, 20 h
Staphylococcus aureus [18] = experiment: Antibacterial activity against Staphylococcus aureus after 20 hrs by broth microdilution assay; assay type: functional
Streptococcus pneumoniae [19] = experiment: Antibacterial activity against methicillin-resistant Streptococcus pneumoniae ATCC 700677 after 20 hrs by broth microdilution assay; assay type: functional; details: ATCC 700677, 20 h
Staphylococcus aureus [20] = experiment: Bactericidal activity against methicillin-sensitive Staphylococcus aureus NRS107 incubated for 20 hrs followed by re-plating on tryptic soy agar plates at 37 degC for 18 hrs by broth microdilution assay; assay type: functional
Streptococcus pneumoniae [21] = experiment: Bactericidal activity against methicillin-resistant Streptococcus pneumoniae ATCC 700677 incubated for 20 hrs followed by re-plating on tryptic soy agar plates at 37 degC for 18 hrs by broth microdilution assay; assay type: functional
Staphylococcus aureus [22] = experiment: Antibacterial activity against vancomycin-resistant Staphylococcus aureus VRSA10 after 20 hrs by broth microdilution assay; assay type: functional; details: VRSA10, 20 h
Staphylococcus aureus [23] = experiment: Bactericidal activity against Staphylococcus aureus USA300 NRS384 incubated for 20 hrs followed by re-plating on tryptic soy agar plates at 37 degC for 18 hrs by broth microdilution assay; assay type: functional
Staphylococcus aureus [24] = experiment: Bactericidal activity against vancomycin-resistant Staphylococcus aureus VRSA10 incubated for 20 hrs followed by re-plating on tryptic soy agar plates at 37 degC for 18 hrs by broth microdilution assay; assay type: functional
Staphylococcus aureus [25] = experiment: Antibacterial activity against methicillin-resistant Staphylococcus aureus NRS385 after 20 hrs by broth microdilution assay; assay type: functional; details: NRS385, 20 h
Enterococcus faecalis [26] = experiment: Bactericidal activity against vancomycin-resistant Enterococcus faecalis ATCC 51299 incubated for 20 hrs followed by re-plating on tryptic soy agar plates at 37 degC for 18 hrs by broth microdilution assay; assay type: functional
Staphylococcus aureus [27] = experiment: Bactericidal activity against Staphylococcus aureus USA400 NRS123 incubated for 20 hrs followed by re-plating on tryptic soy agar plates at 37 degC for 18 hrs by broth microdilution assay; assay type: functional
Caco-2 = experiment: Cytotoxicity against human Caco2 cells assessed as effect on cell viability up to 64 ug/ml after 2 hrs by MTS assay; assay type: cell-based; details: caco-2, 2 h

For `CCCCCCCOc1ccc(-c2nc(C)c(-c3ccnc(NN4CCOCC4)n3)s2)cc1`, which MIC (Staphylococcus aureus [1]) is on record?
The MIC was 25 µg/mL (≈ 53.5 µM).

Which results are given for `CCCCCCCOc1ccc(-c2nc(C)c(-c3ccnc(NN)n3)s2)cc1`?
MIC (Enterococcus faecalis [2]): > 64 µg/mL; MBC [3]: 64 µg/mL (≈ 161 µM); MIC (Staphylococcus aureus [4]): 64 µg/mL (≈ 161 µM); MBC (Listeria monocytogenes [5]): > 64 µg/mL; MIC [6]: 64 µg/mL (≈ 161 µM); MIC (Staphylococcus aureus [7]): 32 µg/mL (≈ 80.5 µM); MIC (Listeria monocytogenes [8]): 16 µg/mL (≈ 40.2 µM); MIC (Streptococcus pneumoniae [9]): > 64 µg/mL; MBC (Staphylococcus aureus [10]): > 64 µg/mL; MBC (Enterococcus faecium [11]): > 64 µg/mL; MBC (Staphylococcus aureus [12]): 64 µg/mL (≈ 161 µM); MIC (Enterococcus faecium [13]): 64 µg/mL (≈ 161 µM); MIC (Staphylococcus aureus [1]): 3.12 µg/mL (≈ 7.85 µM); MBC (Streptococcus pneumoniae [14]): > 64 µg/mL; MBC (Staphylococcus aureus [15]): 64 µg/mL (≈ 161 µM); MBC (Staphylococcus aureus [16]): > 64 µg/mL; MIC (Staphylococcus aureus [17]): 32 µg/mL (≈ 80.5 µM); MIC (Staphylococcus aureus [18]): 16 µg/mL (≈ 40.2 µM); MIC (Streptococcus pneumoniae [19]): > 64 µg/mL; MBC (Staphylococcus aureus [20]): > 64 µg/mL; MBC (Streptococcus pneumoniae [21]): > 64 µg/mL; MIC (Staphylococcus aureus [22]): 64 µg/mL (≈ 161 µM); MBC (Staphylococcus aureus [23]): > 64 µg/mL; MBC (Staphylococcus aureus [24]): > 64 µg/mL; MIC (Staphylococcus aureus [25]): 32 µg/mL (≈ 80.5 µM); MBC (Enterococcus faecalis [26]): > 64 µg/mL; MBC (Staphylococcus aureus [27]): > 64 µg/mL

How did the MIC (Staphylococcus aureus [1]) turn out when `CCCCCCCOc1ccc(-c2nc(C)c(-c3ccnc(N4CC(O)C4)n3)s2)cc1` was run?
The MIC was 6.25 µg/mL (≈ 14.2 µM).

For `CCCCCCCCOc1ccc(-c2nc(C)c(-c3ccnc(NC)n3)s2)cc1`, which MIC (Staphylococcus aureus [1]) is on record?
Its MIC is over 50 µg/mL.

`CCCCCCCCOc1ccc(-c2nc(C)c(-c3ccnc(NC(=N)N4CCN(C)CC4)n3)s2)cc1` was tested. Which MIC (Enterococcus faecalis [2]) did it give?
Its MIC is 16 µg/mL (≈ 30.7 µM).

And the MBC [3]?
Its MBC is 8 µg/mL (≈ 15.3 µM).

And the MIC (Staphylococcus aureus [4])?
Its MIC is 16 µg/mL (≈ 30.7 µM).

What about the MBC (Listeria monocytogenes [5]) of the same compound?
The MBC was 8 µg/mL (≈ 15.3 µM).

What about the MIC [6] of the same compound?
The MIC was 8 µg/mL (≈ 15.3 µM).

And the MIC (Staphylococcus aureus [7])?
Its MIC is 16 to 32 µg/mL (≈ 30.7 to 61.3 µM).

What about the MIC (Listeria monocytogenes [8]) of the same compound?
The MIC was 4 µg/mL (≈ 7.67 µM).

What about the MIC (Streptococcus pneumoniae [9]) of the same compound?
Its MIC is 32 µg/mL (≈ 61.3 µM).

What about the MBC (Staphylococcus aureus [10]) of the same compound?
Its MBC is 16 µg/mL (≈ 30.7 µM).

What about the MBC (Enterococcus faecium [11]) of the same compound?
Its MBC is 16 µg/mL (≈ 30.7 µM).

And the MBC (Staphylococcus aureus [12])?
Its MBC is 16 µg/mL (≈ 30.7 µM).

And the MIC (Enterococcus faecium [13])?
The MIC was 16 µg/mL (≈ 30.7 µM).

What about the MIC (Staphylococcus aureus [1]) of the same compound?
Its MIC is 0.78 µg/mL (≈ 1.5 µM).

And the MBC (Streptococcus pneumoniae [14])?
The MBC was 32 µg/mL (≈ 61.3 µM).

And the MBC (Staphylococcus aureus [15])?
The MBC was 32 µg/mL (≈ 61.3 µM).

What about the MBC (Staphylococcus aureus [16]) of the same compound?
The MBC was 16 µg/mL (≈ 30.7 µM).

What about the MIC (Staphylococcus aureus [17]) of the same compound?
The MIC was 16 µg/mL (≈ 30.7 µM).

What about the MIC (Staphylococcus aureus [18]) of the same compound?
The MIC was 16 µg/mL (≈ 30.7 µM).

And the MIC (Streptococcus pneumoniae [19])?
The MIC was 16 µg/mL (≈ 30.7 µM).

What about the MBC (Staphylococcus aureus [20]) of the same compound?
Its MBC is over 64 µg/mL.

What about the MBC (Streptococcus pneumoniae [21]) of the same compound?
The MBC was 32 µg/mL (≈ 61.3 µM).

And the MIC (Staphylococcus aureus [22])?
The MIC was 8 µg/mL (≈ 15.3 µM).

What about the MBC (Staphylococcus aureus [23]) of the same compound?
The MBC was 16 µg/mL (≈ 30.7 µM).

What about the MBC (Staphylococcus aureus [24]) of the same compound?
Its MBC is 8 µg/mL (≈ 15.3 µM).

What about the MIC (Staphylococcus aureus [25]) of the same compound?
Its MIC is 16 µg/mL (≈ 30.7 µM).

And the Activity (Caco-2)?
Its Activity is “Non-Toxic”.

What about the MBC (Enterococcus faecalis [26]) of the same compound?
The MBC was 64 µg/mL (≈ 123 µM).

What about the MBC (Staphylococcus aureus [27]) of the same compound?
The MBC was 32 µg/mL (≈ 61.3 µM).
